The values below come from US20250129103A1, “METHODS FOR TREATMENT OF CANCER” (Frontier Medicines Corporation, priority 2022, published 2025).

pIC50: −log10 of the molar value. Converted amounts (≈) assume the structure as drawn.

Data set [1] concerns the target KRAS G12C (GMPPNP-loaded) and cRAF (Ras-binding domain) interaction (Homo sapiens (Human), UniProt P01116, C118S/C51S/C80L/G12C). The data set can be described thus: Inhibition of KRAS G12C and cRAF binding (AlphaScreen). The settings on record: KRAS G12C loaded with GMPPNP, cRaf RBD, 2 hours preincubation; read-out: Raf-1 RBD K-Ras IC50. In short, it runs like this: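 GMPPNP-loaded KRAS G12C in 25 mM Hepes pH 7.4, 150 mM NaCl, 5 mM MgCl2, 0.01% Triton X-100, 10 μM GMPPNP, 2% DMSO, preincubated with compound 2 h at room temperature. cRAF RBD plus AlphaScreen beads then added for 60-90 min; signal read at 570 nm.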

Data set [2] in a line: Determination of logD (1-octanol / phosphate buffer pH 7.4). In kind it is physicochemical. The settings on record: 1-octanol/phosphate buffer, pH 7.4, pH 7.4, 1-octanol/phosphate buffer; read-out: Log D, pH 7.4. In short, it runs like this:
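Shake-flask partition between 1-octanol and 100 mM phosphate buffer pH 7.4, each phase presaturated with the other overnight. Tubes shaken 1 h at 800 rpm, room temperature, then centrifuged. Both phases quantified by LCMS and logD calculated from the ratio.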

Data set [3] is described as follows: Determination of kinetic solubility (pH 7.4). It is filed as physicochemical. The settings on record: phosphate buffer, pH 7.4, aqueous buffer, kinetic from dmso stock, 50 mM phosphate buffer pH 7.4, read-out: Ksol, pH 7.4. Summed up:
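Sample mixed with 50 mM phosphate buffer, pH 7.4, vortexed, then shaken 2 h at room temperature and centrifuged. Filtrate analysed by HPLC-UV and LC-MS/MS, with solubility read from peak areas against a standard calibration curve.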

Sequence of KRAS G12C (GMPPNP-loaded) and cRAF (Ras-binding domain) interaction (P01116 other isoform, or with tags, fused parts or gaps G12C/C51S/C80L/C118S): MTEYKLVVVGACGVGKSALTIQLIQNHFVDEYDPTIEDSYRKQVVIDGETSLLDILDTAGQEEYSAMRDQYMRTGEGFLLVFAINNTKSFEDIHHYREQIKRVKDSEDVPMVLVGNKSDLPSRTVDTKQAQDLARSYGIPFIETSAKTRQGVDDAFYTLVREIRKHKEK

Turning to `CC1(c2noc(/C=C/C(=O)N3CCN(c4nc(OC[C@@]56CCCN5C[C@H](F)C6)nc5c(F)c(-c6cccc7cccc(Cl)c67)ncc45)C[C@@H]3CC#N)n2)CC1` [Compound 47], the pIC50 in data set [1] is 6.30 to 7.00. Moreover, the logD in data set [2] worked out at 4.59. Besides, in data set [3], the solubility kinetic at 2 h turned out to be 0.01 µg/mL (≈ 0.0131 µM).

Turning to `C#Cc1c(F)ccc2cccc(-c3ncc4c(N5CCN(C(=O)/C=C/CN6[C@@H]7CC[C@H]6COC7)[C@@H](CC#N)C5)nc(OC[C@@]56CCCN5C[C@H](F)C6)nc4c3F)c12` [Compound 107, 2-((S)-1-((E)-4-((1R,5S)-3-oxa-8-azabicyclo[3.2.1]octan-8-yl)but-2-enoyl)-4-(7-(8-ethynyl-7-fluoronaphthalen-1-yl)-8-fluoro-2-(((2R,7aS)-2-fluorotetrahydro-1H-pyrrolizin-7a(5H)-yl)methoxy)pyrido[4,3-d]pyrimidin-4-yl)piperazin-2-yl)acetonitrile], the pIC50 in data set [1] was above 8.00. In addition, in data set [2], the logD was found to be 2.93. In data set [3], the solubility kinetic at 2 h was determined as 132 µg/mL (≈ 170 µM).

Regarding `CCc1c(F)ccc2cccc(-c3ncc4c(N5CCN(C(=O)/C=C/CN6CC7CC(C6)O7)[C@@H](CC#N)C5)nc(OC[C@@]56CCCN5C[C@H](F)C6)nc4c3F)c12` [Compound 242], the pIC50 in data set [1] was above 8.00. Besides, the logD in data set [2] was 3.38. Besides, the solubility kinetic at 2 h in data set [3] came to 93.3 µg/mL (≈ 122 µM).

As for `N#CC[C@H]1CN(c2nc(OC[C@@]34CCCN3C[C@H](F)C4)nc3c(F)c(-c4cccc(F)c4C(F)(F)F)ncc23)CCN1C(=O)/C=C/CN1[C@@H]2CC[C@H]1COC2` [Compound 292], the pIC50 in data set [1] was above 8.00. The logD in data set [2] was found to be 2.54. In addition, the solubility kinetic at 2 h in data set [3] stood at 112 µg/mL (≈ 145 µM).

Turning to `C[C@@H]1CN(C/C=C/C(=O)N2CCN(c3nc(OC[C@@]45CCCN4C[C@H](F)C5)nc4c(F)c(-c5cccc(Cl)c5C5CC5)ncc34)C[C@@H]2CC#N)C[C@H](C)O1` [Compound 300], the pIC50 in data set [1] was 7.00 to 8.00. Also, the logD in data set [2] worked out at 4.05. For the same compound, the solubility kinetic at 2 h in data set [3] is 124 µg/mL (≈ 164 µM).

Consider `C[C@@H]1CN(C/C=C/C(=O)N2CCN(c3nc(OC[C@@]45CCCN4C[C@H](F)C5)nc4c(F)c(-c5cccc6ccc(F)c(F)c56)ncc34)C[C@@H]2CC#N)C[C@@H](C)O1` [Compound 241], for which the pIC50 in data set [1] is 7.00 to 8.00. The logD in data set [2] worked out at 2.94. Also, the solubility kinetic at 2 h in data set [3] was 60.1 µg/mL (≈ 77.7 µM).

For the compound `Cc1c(F)ccc2cccc(-c3ncc4c(N5CCN(C(=O)/C=C/CN6CC7CC(C6)O7)[C@@H](CC#N)C5)nc(OC[C@@]56CCCN5C[C@H](F)C6)nc4c3F)c12` [Compound 247], the pIC50 in data set [1] is above 8.00. In addition, the logD in data set [2] came to 3.02. The solubility kinetic at 2 h in data set [3] was 88.6 µg/mL (≈ 118 µM).

Take `N#CC[C@H]1CN(c2nc(OCC34CCCN3CCC4)nc3c(F)c(-c4cccc5ccc(F)c(Cl)c45)ncc23)CCN1C(=O)/C=C/CN1C[C@@H]2C[C@H]1CO2` [Compound 182]: the pIC50 in data set [1] is above 8.00. Besides, the logD in data set [2] came to 1.44. Also, the solubility kinetic at 2 h in data set [3] came out at 119 µg/mL (≈ 158 µM).

For the compound `C[C@@H]1CN(C/C=C/C(=O)N2CCN(c3nc(OC[C@@]45CCCN4C[C@H](F)C5)nc4c(F)c(-c5cccc6cccc(F)c56)ncc34)C[C@@H]2CC#N)C[C@@H](C)O1` [Compound 236], the negative logarithm of the IC50 (pIC50) in data set [1] was 6.30 to 7.00. In data set [2], the logD is 3.59. In data set [3], the solubility kinetic at 2 h stood at 88 µg/mL (≈ 117 µM).

Consider `N#CC[C@H]1CN(c2nc(OC[C@@]34CCCN3C[C@H](F)C4)nc3c(F)c(-c4cccc5ccc(F)c(F)c45)ncc23)CCN1C(=O)/C=C/CN1CCCOCC1` [Compound 110, 2-((S)-1-((E)-4-(1,4-oxazepan-4-yl)but-2-enoyl)-4-(7-(7,8-difluoronaphthalen-1-yl)-8-fluoro-2-(((2R,7aS)-2-fluorotetrahydro-1H-pyrrolizin-7a(5H)-yl)methoxy)pyrido[4,3-d]pyrimidin-4-yl)piperazin-2-yl)acetonitrile], for which the pIC50 in data set [1] was above 8.00. Moreover, in data set [2], the logD came out at 2.9. Besides, the solubility kinetic at 2 h in data set [3] was found to be 78.6 µg/mL (≈ 104 µM).

Take `N#CC[C@H]1CN(c2nc(OCC34CCCN3CCC4)nc3c2CCN(c2cccc4cccc(Cl)c24)C3)CCN1C(=O)/C=C/CN1C[C@H]2COC[C@H]2C1` [Compound 195]: the negative-log IC50 (pIC50) in data set [1] is 7.00 to 8.00. Further, the logD in data set [2] was 2.44. Also, the solubility kinetic at 2 h in data set [3] worked out at 149 µg/mL (≈ 202 µM).

For the compound `CC(C)(C)c1noc(/C=C/C(=O)N2CCN(c3nc(OCC45CCCN4CCC5)nc4c(F)c(-c5cccc6cccc(Cl)c56)ncc34)C[C@@H]2CC#N)n1` [Compound 33], the pIC50 in data set [1] was 6.30 to 7.00. Further, the logD in data set [2] stood at 3.73. Also, in data set [3], the solubility kinetic at 2 h worked out at 50 µg/mL (≈ 66.7 µM).

For `N#CC[C@H]1CN(c2nc(OCC34CCCN3CCC4)nc3c2CCN(c2cccc4cccc(Cl)c24)C3)CCN1C(=O)/C=C/CN1[C@@H]2CC[C@H]1COC2` [Compound 168], the pIC50 in data set [1] is above 8.00. The logD in data set [2] was 2.59. Also, the solubility kinetic at 2 h in data set [3] is 104 µg/mL (≈ 142 µM).

As for `N#CC[C@H]1CN(c2nc(OC[C@@]34CCCN3C[C@H](F)C4)nc3c(F)c(-c4cccc5cccc(Cl)c45)ncc23)CCN1C(=O)/C=C/CN1CCN(C2COC2)CC1` [Compound 325], the pIC50 in data set [1] was above 8.00. Moreover, in data set [2], the logD stood at 2.5. Besides, in data set [3], the solubility kinetic at 2 h amounted to 115 µg/mL (≈ 144 µM).

On to `C[C@@H]1CN(C/C=C/C(=O)N2CCN(c3nc(OC[C@@]45CCCN4C[C@H](F)C5)nc4c(F)c(-c5cccc6ccc(F)c(F)c56)ncc34)C[C@@H]2CC#N)C[C@H](C)O1` [Compound 239], for which, in data set [1], the pIC50 is 7.00 to 8.00. The logD in data set [2] stood at 2.53. Besides, the solubility kinetic at 2 h in data set [3] was 92.6 µg/mL (≈ 120 µM).

On to `N#CC[C@H]1CN(c2nc(OC[C@@]34CCCN3C[C@H](F)C4)nc3c(F)c(-c4cccc5ccc(F)c(F)c45)ncc23)CCN1C(=O)/C=C/CN1C[C@@H]2C[C@H]1CO2` [Compound 225], for which, in data set [1], the pIC50 is above 8.00. The logD in data set [2] is 1.87. Further, the solubility kinetic at 2 h in data set [3] was 135 µg/mL (≈ 178 µM).

For `N#CC[C@H]1CN(c2nc(OCC34CCCN3CCC4)nc3c2CCN(c2cccc4cccc(Cl)c24)C3)CCN1C(=O)/C=C/CN1CC(F)C1` [Compound 201], the pIC50 in data set [1] was 7.00 to 8.00. Besides, the logD in data set [2] was 2.76. Further, the solubility kinetic at 2 h in data set [3] was 119 µg/mL (≈ 171 µM).

Turning to `N#CC[C@H]1CN(c2nc(OC[C@@]34CCCN3C[C@H](F)C4)nc3c2CCN(c2cccc4cccc(Cl)c24)C3)CCN1C(=O)/C=C/c1nc([C@H]2C[C@@H]2F)no1` [Compound 37], the pIC50 in data set [1] is 7.00 to 8.00. In addition, the logD in data set [2] stood at 4.85. In addition, the solubility kinetic at 2 h in data set [3] was found to be 0.01 µg/mL (≈ 0.0132 µM).

Consider `N#CC[C@H]1CN(c2nc(OC[C@@]34CCCN3C[C@H](F)C4)nc3c(F)c(-c4cccc(Cl)c4C(F)F)ncc23)CCN1C(=O)/C=C/CN1[C@@H]2CC[C@H]1COC2` [Compound 275], for which the pIC50 in data set [1] is above 8.00. For the same compound, in data set [2], the logD amounted to 2.73. In addition, the solubility kinetic at 2 h in data set [3] worked out at 106 µg/mL (≈ 137 µM).

Turning to `Cc1ncc(F)c(/C=C/C(=O)N2CCN(c3nc(OC[C@@]45CCCN4C[C@H](F)C5)nc4c(F)c(-c5cccc6cccc(Cl)c56)ncc34)C[C@@H]2CC#N)n1` [Compound 157], in data set [1], the pIC50 was 7.00 to 8.00. Further, the logD in data set [2] worked out at 4.05. Also, the solubility kinetic at 2 h in data set [3] is 0.55 µg/mL (≈ 0.729 µM).

Consider `N#CC[C@H]1CN(c2nc(OCC34CCCN3CCC4)nc3c(F)c(-c4cccc5cccc(Cl)c45)ncc23)CCN1C(=O)/C=C/c1nc(C2CC2)no1` [Compound 24], for which the pIC50 in data set [1] is 6.30 to 7.00. Moreover, the logD in data set [2] stood at 2.71. Moreover, the solubility kinetic at 2 h in data set [3] came out at 38.5 µg/mL (≈ 52.4 µM).

Consider `N#CC[C@H]1CN(c2nc(OC[C@@]34CCCN3C[C@H](F)C4)nc3c(F)c(-c4cccc(Cl)c4C4CC4)ncc23)CCN1C(=O)/C=C/CN1CCCOCC1` [Compound 112, 2-((S)-1-((E)-4-(1,4-oxazepan-4-yl)but-2-enoyl)-4-(7-(3-chloro-2-cyclopropylphenyl)-8-fluoro-2-(((2R,7aS)-2-fluorotetrahydro-1H-pyrrolizin-7a(5H)-yl)methoxy)pyrido[4,3-d]pyrimidin-4-yl)piperazin-2-yl)acetonitrile], for which the pIC50 in data set [1] was above 8.00. In data set [2], the logD is 3.28. Further, the solubility kinetic at 2 h in data set [3] was 52.4 µg/mL (≈ 70.1 µM).

Turning to `N#CC[C@H]1CN(c2nc(OC[C@@]34CCCN3C[C@H](F)C4)nc3c(F)c(-c4cccc5cccc(Cl)c45)ncc23)CCN1C(=O)/C=C/CN1CC2CCC1CO2` (stereo partly drawn) [Compound 108, 2-((2S)-1-((E)-4-(2-oxa-5-azabicyclo[2.2.2]octan-5-yl)but-2-enoyl)-4-(7-(8-chloronaphthalen-1-yl)-8-fluoro-2-(((2R,7aS)-2-fluorohexahydro-1H-pyrrolizin-7a-yl)methoxy)pyrido[4,3-d]pyrimidin-4-yl)piperazin-2-yl)acetonitrile], in data set [1], the pIC50 is above 8.00. In addition, the logD in data set [2] worked out at 3. In addition, the solubility kinetic at 2 h in data set [3] worked out at 88 µg/mL (≈ 114 µM).

Turning to `Cc1noc(/C=C/C(=O)N2CCN(c3nc(OCC45CCCN4CCC5)nc4c(F)c(-c5cccc6cccc(Cl)c56)ncc34)C[C@@H]2CC#N)n1` [Example 5, (S,E)-2-(4-(7-(8-chloronaphthalen-1-yl)-8-fluoro-2-((tetrahydro-1H-pyrrolizin-7a(5H)-yl)methoxy)pyrido[4,3-d]pyrimidin-4-yl)-1-(3-(3-methyl-1,2,4-oxadiazol-5-yl)acryloyl)piperazin-2-yl)acetonitrile], the pIC50 in data set [1] is 7.00 to 8.00. Besides, in data set [2], the logD amounted to 2.15. Besides, the solubility kinetic at 2 h in data set [3] came out at 161 µg/mL (≈ 227 µM).

Regarding `Cc1nnc(/C=C/C(=O)N2CCN(c3nc(OCC45CCCN4CCC5)nc4c3CCN(c3cccc5cccc(Cl)c35)C4)C[C@@H]2CC#N)[nH]1` [Compound 29], in data set [1], the pIC50 was below 6.30. In data set [2], the logD turned out to be 2.84. For the same compound, the solubility kinetic at 2 h in data set [3] stood at 74.7 µg/mL (≈ 108 µM).
